Assay [1] is described as follows: Inhibition of Vibrio cholerae carbonic anhydrase beta preincubated for 15 mins by stopped-flow CO2 hydrase assay.
A short description of assay [2]: Inhibition of Vibrio cholerae alpha carbonic anhydrase preincubated for 15 mins by stopped-flow CO2 hydrase assay.
Assay [3] in a line: Inhibition of Helicobacter pylori alpha carbonic anhydrase preincubated for 15 mins by stopped-flow CO2 hydrase assay.
A further assay deals with Carbonic anhydrase 1 (Homo sapiens, UniProt P00915). As to the kind of experiment: Inhibition of human carbonic anhydrase 1 preincubated for 15 mins by stopped-flow CO2 hydrase assay.
Carbonic anhydrase 1, sequence (P00915 whole entry): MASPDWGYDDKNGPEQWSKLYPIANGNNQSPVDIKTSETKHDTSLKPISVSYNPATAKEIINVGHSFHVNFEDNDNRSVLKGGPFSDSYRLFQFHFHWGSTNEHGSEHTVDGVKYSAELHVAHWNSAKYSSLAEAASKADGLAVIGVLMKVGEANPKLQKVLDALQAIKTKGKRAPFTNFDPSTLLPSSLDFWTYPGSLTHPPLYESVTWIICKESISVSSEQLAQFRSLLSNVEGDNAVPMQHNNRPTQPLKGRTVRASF

This passage reports Ki results from ChEMBL document CHEMBL3813622, “Anion inhibition profiles of α-, β- and γ-carbonic anhydrases from the pathogenic bacterium Vibrio cholerae” (Bioorg Med Chem, 2016).

One may read the Ki as a dissociation constant, usually derived from enzyme kinetics or from competition with a known ligand.

Several values for one entry are separate records, joined by “and”; a condition that tells them apart may be missing. Identical values can stand only once. Bounds are passed on as bounds.

The molecule `O=S(=O)(O)F` registered a Ki in assay [1] of 8900 µM.

With `O=S(=O)(O)NS(=O)(=O)O`, the Ki was 88200 µM in assay [2], 540 µM in assay [3] and more than 200000 µM in assay [1].

On to `O=S(=O)(O)OOS(=O)(=O)O`, for which the results for the Ki in assay [2], in assay [3] and in assay [1] were 84100 µM, 920 µM and 3400 µM, respectively.

In the case of `F[B-](F)(F)F`, the inhibitory constant (Ki) in assay [2], in assay [3] and in assay [1] was more than 200000 µM throughout.

Consider `O=[N+]([O-])O`, for which the Ki is 670 µM in assay [2], 810 µM in assay [3] and 8400 µM in assay [1].

For `O=[Te](=O)(O)O`, the inhibition constant Ki in assay [2] was 14500 µM; in assay [3] it was 340 µM; in assay [1], 2300 µM.

For `N#C[SeH]`, the Ki in assay [2] was 760 µM; in assay [3] it was 730 µM; in assay [1] it was 5300 µM; at Carbonic anhydrase 1, 8.5 µM.

Turning to `[N-]=[N+]=[N-]`, the inhibitory constant (Ki) came out at 760 µM in assay [2], 830 µM in assay [3] and 20500 µM in assay [1].

With `O=C(O)O` [BICARBONATE], the inhibition constant (Ki) in assay [2] was 4640 µM and 5130 µM; in assay [1] it was 5900 µM and 6700 µM.

With `Br` [BROMIDE], the Ki in assay [2] turned out to be 28000 µM; in assay [3], 2410 µM; in assay [1], 7400 µM.

Take `S=C(S)S` [CARBONOTRITHIOIC ACID]: the figures for the inhibitory constant (Ki) in assay [2], in assay [3] and in assay [1] were 88 µM, 380 µM and 7000 µM, respectively.

On to `N#CO` [CYANATE], for which the results for the Ki in assay [2], in assay [3] and in assay [1] were 75 µM, 600 µM and 7100 µM, respectively.

In the case of `CCN(CC)C(=S)S` [DITIOCARB], the Ki in assay [2] amounted to 43 µM; in assay [3], 5 µM; in assay [1] it was 730 µM.

Take `F` [FLUORIDE ION]: the inhibitory constant (Ki) in assay [2] was determined as 800 µM; in assay [3] it was 4080 µM; in assay [1] it was 8700 µM.

As for `Cl` [HYDROCHLORIC ACID], the Ki was determined as 930 µM in assay [2], 2700 µM in assay [3] and 8100 µM in assay [1].

Take `S` [HYDROGEN SULFIDE]: the results for the Ki in assay [2] and in assay [1] were 74 µM and 21300 µM, respectively.

As to `I` [IODIDE], the inhibition constant (Ki) in assay [2] was 9730 µM; in assay [3], 6050 µM; in assay [1] it was 9000 µM.

For the molecule `O=NO` [NITROUS ACID], the Ki worked out at 34100 µM in assay [2], 930 µM in assay [3] and 9100 µM in assay [1].

Consider `[O-][Cl+3]([O-])([O-])O` [PERCHLORATE], for which the results for the Ki in assay [2], in assay [3] and in assay [1] were more than 200000 µM, 10100 µM and more than 200000 µM, respectively.

Turning to `O=[As](O)(O)c1ccccc1` [PHENYLARSONIC ACID], the Ki in assay [2] was 23 µM; in assay [3], 440 µM; in assay [1], 79 µM.

In the case of `OB(O)c1ccccc1` [PHENYLBORONIC ACID], the results for the Ki in assay [2], in assay [3] and in assay [1] were 7 µM, 97 µM and 85 µM, respectively.

For `O=P(O)(O)OP(=O)(O)O` [PYROPHOSPHORIC ACID], the inhibitory constant (Ki) in assay [2] was 2960 µM; in assay [3], 660 µM.

As for `O=[Se](=O)(O)O` [SELENIC ACID], the Ki in assay [2] is 60800 µM; in assay [3], 720 µM; in assay [1] it was 3400 µM.

Turning to `NS(=O)(=O)O` [SULFAMATE], the Ki turned out to be 31 µM in assay [2], 80 µM in assay [3] and 86 µM in assay [1].

Turning to `NS(N)(=O)=O` [SULFAMIDE], the Ki in assay [2] came out at 8 µM; in assay [3] it was 73 µM; in assay [1], 54 µM.

On to `O=S(=O)(O)O` [SULFURIC ACID], for which the Ki was 850 µM in assay [2] and 820 µM in assay [3].

As for `O=S(O)O` [SULFUROUS ACID], the values for the inhibitory constant (Ki) in assay [2], in assay [3] and in assay [1] were 68 µM, 990 µM and more than 200000 µM, respectively.

With `N#CS` [THIOCYANIC ACID], the figures for the Ki in assay [2], in assay [3] and in assay [1] were 820 µM, 4100 µM and 9500 µM, respectively.
